# Source: patent US12605354B2, “Azelaic acid esters in the treatment or prevention of dyslipidemia and associated conditions” (NEW FRONTIER LABS, LLC, priority 2020, dated 2026)
# “Also recorded” adds a separate entry of the source. Marks after values point to notes of the source that are not given here.
# Experiments:
# Type in all cases: in vivo, human
# [1] = test system: overweight to obese males; test: 21-day oral DEA study: fasting plasma glucose and OGTT glucose; settings: for AUC Glucose: 180-minute OGTT, in mg·min/dL (unit assumed); for AUC Glucose / Fasting plasma glucose / Glucose 180 min: D21 post-treatment, 21 daily oral doses of 1 mg/kg, mean; for Glucose 180 min: OGTT
# Excerpt: Seventeen subjects were recruited by sampling a large population at risk for T2D (according to convenience sample; a statistical method of drawing representative data) to measure the changes in glucose, lipid and insulin measurements after an OGTT after the subjects had been treated for 21 days.
# (§1) The subjects were overweight to obese males with body mass indices (BMIs) ranging from 27.2 to 43.6 kg/m^2, glycated hemoglobin A1c (HbA1c) of 5.0-6.2% and insulin levels of 8.8-52 μU/mL. The study was conducted by Clinical Trials of Texas, Inc. in San Antonio, TX. The cohort represented a population at risk for the development of T2D. The study was restricted to male participants to control for the variability of insulin sensitivity associated with the menstrual cycle. The subjects received 21 daily oral doses (“q1d”) of 1 mg/kg DEA. An OGTT, in which 75 grams of glucose in a total volume of 300 mL was administered orally to subjects, was performed on Day 0 and again on Day 21 and glucose measurements performed at −30, −5 and 0 min, insulin measurements at −30 and 0 min, and both glucose measurements and insulin measurements at 30, 60, 90, 120 and 180 minutes, where “0 min” is the time at which the glucose solution was administered. The 180-minute time point was selected to gain an early insight into the possible signal of drug action. Blood lipid levels (triglycerides, cholesterol, HDL, non-cholesterol HDL and LDL) were measured before the onset of treatment on Day 0 and again on Day 21. The error of the assays was <5% [36].
# The results of the various marker measurements at Day 0 and Day 21 were compared using both the paired Students T-test and the Wilcoxon signed rank test. The results of both calculations are provided; the p-value from the paired Student T-test first, followed by the p-value from the Wilcoxon signed rank test. Generalized Estimating Equations and bootstrapping were used to verify the results generated with other methods. Fasting glucose was calculated as the average of the −30, −5, and 0-minute measurements and fasting insulin was calculated as the average of the −30- and 0-minute measurements. Spearman's correlation coefficient was calculated for the relationship between A1c and pre-treatment fasting plasma glucose versus post-treatment fasting plasma glucose. Area under the curve (AUC) was calculated over the 180-minute time span of the OGTT. All analyses were performed using the open language engine R 3.4.4. Statistical significance was at the α=0.05 level.
# For measuring the effect of DEA on blood glucose, an assessment of fasting plasma glucose levels was relied upon, which is a measure that is commonly used as an indication that a subject may be diabetic. A level under 100 mg/dL is considered clinically normal while the range between 100 and 125 mg/dL is indicative of prediabetes. At the threshold of 100 mg/dL the human body begins to have a compromised insulin response to glucose shock. The OGTT was used, in which a standard dose of glucose was ingested by mouth, and blood samples were taken at specified time points after ingestion. Plasma blood glucose measurements were then obtained as a means of understanding the pharmacodynamic effects of DEA.
# [2] = test system: subject, with diet induced insulin resistance and diabetes; test: Example 2: fasting blood lipids after buccal or gastric delivery of DEA; settings: for TC, triglyceride, and Calc LDL levels and TC/HDL ratio: all tested dosages vs 0 mg/kg
# Excerpt: (§2) Described in this example is an evaluation of the effects of alkyl azelates, such as DEA, on certain markers of insulin resistance and dyslipidemia, namely, blood plasma glucose, insulin levels and/or lipid levels, when administered either for buccal delivery or for gastric delivery in a subject, with diet induced insulin resistance and diabetes with a BMI of approximately 27.
# (§3) Diethyl azelate was synthesized from azelaic acid and ethyl alcohol sing the standard acid-catalyzed esterification followed by fractional distillation to produce DEA to 99% purity as determined by chromatography-mass spectrometry (GC-MS). The 99% distilled DEA distillation product was administered in unformulated, unencapsulated, etc. form (i.e., “as is”) for buccal delivery as indicated below.
# (§4) For gastric delivery, the 99% DEA distillation product was placed in a hard gelatin capsule, size 00 (PureCaps USA, Philmont, NY) and administered for gastric delivery by swallowing with a drink of water.
# Fasting blood levels of cholesterol, high density lipoprotein (HDL) cholesterol, and triglycerides were measured using Lipid Panel PTS test strips and CardioChek P-A test system (Polymer Technology Systems, Inc., Indianapolis, IN) according to the manufacturer's instructions.
# [3] = test system: overweight to obese males; test: 21-day oral DEA study: tolerability, adverse effects
# Method: as §1
# [4] = test system: subject, with diet induced insulin resistance and diabetes; test: Example 2: plasma glucose in OGTT after buccal or gastric delivery of DEA; settings: for plasma glucose levels during OGTT: 0, 1, 2, 4 hours, FIG. 16
# Excerpt: as §2, §3, §4
# Fasting blood glucose levels were measured using UniStrip blood glucose test strips (UniStrip Technologies LLC, Charlotte, NC) and OneTouchUltra 2 blood glucose meter (LifeScan OneTouch, Tampa. FL).
# [5] = buccal delivery, 0.5, 1, 2, 4 mg/kg vs 0 mg/kg, FIG. 8, greatest lowering at 0.5 mg/kg
structure (smiles),measurement,setting,value
"CCOC(=O)CCCCCCCC(=O)OCC [DEA, diethyl azelate]",average decrease of fasting glucose,"[1]; 8 subjects with a fasting glucose≥100 mg/dL, Day 21 vs Day 0, p=0.033, p=0.06",6.06 mg/dL
same,AUC Glucose,"[1]; All (n = 17), D0 25826",25356
same,AUC Glucose,"[1]; FPG <100 mg/dL (n = 8), D0 23530",24475
same,AUC Glucose,"[1]; FPG >100 mg/dL (n = 9), D0 27867",26138
same,AUC Glucose,"[1]; High A1c (n = 9), D0 27313",25889
same,AUC Glucose,"[1]; Low A1c (n = 8), D0 24153",24756
same,Fasting plasma glucose,"[1]; All (n = 17), D0 101.662",99.732 mg/dL
same,Fasting plasma glucose,"[1]; FPG <100 mg/dL (n = 8), D0 92.769",97.25 mg/dL
same,Fasting plasma glucose,"[1]; FPG >100 mg/dL (n = 9), D0 109.567, P < 0.01",101.939** mg/dL
same,Fasting plasma glucose,"[1]; High A1c (n = 9), D0 105.156",100.261 mg/dL
same,Fasting plasma glucose,"[1]; Low A1c (n = 8), D0 97.731",99.138 mg/dL
same,Glucose 180 min,"[1]; All (n = 17), D0 100.315",91.579 mg/dL
same,Glucose 180 min,"[1]; FPG <100 mg/dL (n = 8), D0 89.919",86.494 mg/dL
same,Glucose 180 min,"[1]; FPG >100 mg/dL (n = 9), D0 109.556",96.1 mg/dL
same,Glucose 180 min,"[1]; High A1c (n = 9), D0 108.978",95.128 mg/dL
same,Glucose 180 min,"[1]; Low A1c (n = 8), D0 90.569",87.588 mg/dL
same,increase of post-treatment fasting glucose,"[1]; entire cohort of 17 subjects, Day 21 vs Day 0, insignificant (p=0.962; p=0.96)",0.11 mg/dL
same,average decrease of glucose at 180 minutes,"[1]; entire cohort, not significant (p=0.136; 0.057)",9.14%
same,decrease in 180 min plasma glucose after treatment,"[1]; remaining 16 subjects (subject #1 excluded), p=0.002, 0.003",13.5%
same,increase of glucose at 180 minutes,[1]; single outlier (subject #1),58.6%
same,fasting glucose level post-treatment,"[1]; subject #1 (A1c 6.2%), decreased from 123.8",116.3 mg/dL
same,180 min glucose level post-treatment,"[1]; subject #1 (A1c 6.2%), decreased from 200.0",184.5 mg/dL
same,180 min glucose level post-treatment,"[1]; subject #2 (A1c 6.1%), from 88.3",69 mg/dL
same,180 min glucose level post-treatment,"[1]; subject #3 (A1c 6.0%), from 146",119 mg/dL
same,average decrease of fasting glucose,"[1]; subjects with HbA1c≥5.6%, Day 21 vs Day 0, p=0.128, p=0.22",4.25 mg/dL
same,median decrease of glucose levels at 180 minutes,"[1]; subset of 12 subjects, Day 21",25.3%
same,average decrease of glucose levels at 180 minutes,"[1]; subset of 12 subjects, Day 21, p<0.001",21.7%
same,"improvement in total cholesterol and TC/HDL ratio, buccal relative to gastric delivery","[2]; FIG. 17, T test",statistically significant greater improvement
same,HDL levels,"[2]; buccal delivery, 0.5, 1, 2, 4 mg/kg vs 0 mg/kg, FIG. 8",increased at all DEA doses tested
same,Triglycerides,[2]; [5],lowered
same,calculated LDL,[2]; [5],lowered
same,total cholesterol,[2]; [5],lowered
same,HDL levels,"[2]; buccal delivery, all dosages vs 0 mg/kg, FIG. 15","elevated (i.e., improved)"
same,TC/HDL ratio,"[2]; buccal delivery, all tested amounts 0.5-4 mg/kg vs no DEA, FIG. 9, lowered the most with 0.5 mg/kg","lowered (i.e., improved) TC/HDL ratio"
same,"TC, triglyceride, and Calc LDL levels and TC/HDL ratio","[2]; buccal delivery, FIG. 15, more pronounced at 1 mg/kg","lowered (i.e., improved)"
same,HDL levels,"[2]; gastric delivery, all dosages vs 0 mg/kg, FIG. 15","elevated (i.e., improved)"
same,"TC, triglyceride, and Calc LDL levels and TC/HDL ratio","[2]; gastric delivery, FIG. 15, more pronounced at 0.25 mg/kg","lowered (i.e., improved)"
same,tolerability of daily oral DEA,"[3]; 17 subjects, 21 daily oral doses of 1 mg/kg, 1 mg/kg",well tolerated by all study subjects
same,Hypoglycemia,[3]; 21-day study,Neither metformin nor DEA administration as presented herein induced hypoglycemia; also recorded: no effect
same,Side effects,[3]; 21-day study,mild transient diarrhea (1/17 subjects)
same,adverse effects,"[3]; first week of treatment, no other adverse effects reported",only one subject experienced transient mild diarrhea
same,"improvement in plasma glucose levels, buccal relative to gastric delivery","[4]; at 0 hour and 4 hours after 75 grams of glucose in OGTT, FIG. 17, T test",significantly significant greater improvement
same,plasma glucose levels during OGTT,"[4]; buccal delivery vs 0 mg/kg, more pronounced at 0.5 mg/kg","lowered (i.e., improved) plasma glucose levels at most tested DEA dosages and post-glucose ingestion time points"
same,plasma glucose concentrations during OGTT,"[4]; buccal, 0.5-4 mg/kg vs 0, 0, 1, 2, 4 hours after 75 grams of glucose, FIG. 10, most pronounced at 0.5 and 1 mg/kg",lowered (improved) plasma glucose levels
same,plasma glucose concentrations during fasting OGTT,"[4]; buccal, 0.5-4 mg/kg vs 0, FIG. 11, most pronounced at 0.5 and 1 mg/kg",lowered (improved) plasma glucose levels
same,plasma glucose concentrations during OGTT at 1 hour,"[4]; buccal, 0.5-4 mg/kg vs 0, FIG. 12, most pronounced at 0.5 mg/kg",lowered (improved) plasma glucose levels in the setting of OGTT at all DEA dosage amounts
same,plasma glucose concentrations during OGTT at 2 hours,"[4]; buccal, 0.5-4 mg/kg vs 0, FIG. 13, most pronounced at 0.5 and 1 mg/kg",lowered (improved) plasma glucose levels in the setting of OGTT at all DEA dosage amounts
same,plasma glucose concentrations during OGTT at 4 hours,"[4]; buccal, 0.5-4 mg/kg vs 0, FIG. 14","lowered (improved) plasma glucose levels in the setting of OGTT at the 0.5 mg/kg, 1 mg/kg, and 4 mg/kg DEA dosage amounts"
same,plasma glucose levels during OGTT,"[4]; gastric delivery vs 0 mg/kg, more pronounced at 0.25 mg/kg","lowered (i.e., improved) plasma glucose levels at most tested DEA dosages and post-glucose ingestion time points"
